Test results reported in article PMC8037910, “Effect of Chronic Administration of 5-(3-chlorophenyl)-4-Hexyl-2,4 -Dihydro-3H-1,2,4-Triazole-3-Thione (TP-315)—A New Anticonvulsant Drug Candidate—On Living Organisms” (International Journal of Molecular Sciences, 2021).
Like-named read-outs stand apart in the source and are kept apart here.

What was measured:
[1] = PAMPA BBB (parallel artificial membrane permeability assay); type: in vitro ADME; details: pH 7.4, 37 °C, donor 20 µg/mL, read-out: Permeability Coefficients (Pe × 10−6) ± SD
Method: BBB permeability of the compounds was investigated by using a PAMPA method (parallel artificial membrane permeability assay). The PAMPA system consisted of a 96-well microfilter plate and a 96-well filter plate and was divided into two chambers: a donor at the bottom and an acceptor at the top, separated by a 120-μm-thick microfilter disc coated with BBB lipid solution (Pion, Inc.). The solutions of each compound were prepared in dimethyl sulfoxide (DMSO) at 4 mg/mL concentration and then diluted with Prisma buffer (pH = 7.4) to obtain the donor drug solution with the final nominal concentration of 20 µg/mL. The donor solutions were placed on the donor plate. Acceptor plate contained Brain Sink Buffer (BSB). The plates were put together and incubated at 37 °C for 180 min in a humidity-saturated atmosphere. The concentrations of the compounds were determined with a UV-reader (Multiskan GO, Thermo Scientific) at 254 nm in the donor and acceptor compartments.
The permeability values (Pe) were calculated by using the following equation:(1) −ln(1−CA/Cequilibrium)/S×(1/VD+1/VA)×t where VD: donor volume, VA: acceptor volume, Cequilibrium: equilibrium concentration Cequilibrium=CD×VD+ CA×VA/VD+VA, CD: donor concentration, CA: acceptor concentration, S: membrane area, and t: incubation time (in seconds). High BBB permeation (CNS+) was expected for compounds with Pe > 5.19, whereas low BBB permeation (CNS-) was expected for compounds with Pe < 2.07 [21].

[2] = test system: 6 Hz psychomotor seizure model; design: method as in PMID 32253957; details: mice, cited from earlier work
[3] = test system: maximal electroshock-induced seizure (MES); design: method as in PMID 23291122, PMID 25226229, PMID 25090118; details: mice, cited from earlier work
[4] = test system: mice; design: method as in PMID 23291122, PMID 25226229, PMID 25090118; unit not given here; details: chimney test, cited from earlier work
[5] = molecular target: batrachotoxin-binding site on voltage-gated sodium channels; design: method as in PMID 25226229, PMID 30594731, PMID 28824309; details: read-out: Affinity towards Batrachotoxin-Binding Site on Sodium Channels IC50 ± SEM; cited from earlier work
[6] = test system: mice; design: method as in PMID 23291122, PMID 25226229, PMID 25090118; details: rotarod test (†), the values are: TD50, cited from earlier work

| Compound | Papp at 180 min, 20 µg/mL [1] [×10⁻⁶ cm/s] | Anticonvulsant Activity in 6 Hz Test ED50 ± SEM ([2]; pretreatment time 15 min) [mg/kg] | Anticonvulsant Activity in 6 Hz Test ED50 ± SEM ([2]; pretreatment time 30 min) [mg/kg] | Anticonvulsant Activity in 6 Hz Test ED50 ± SEM ([2]; pretreatment time 60 min) [mg/kg] | Anticonvulsant Activity in 6 Hz Test ED50 ± SEM ([2]; pretreatment time 120 min) [mg/kg] | Anticonvulsant Activity in MES Test ED50 ± S.E. ([3]; pretreatment time 15 min) [mg/kg] | Anticonvulsant Activity in MES Test ED50 ± S.E. ([3]; pretreatment time 30 min) [mg/kg] | Anticonvulsant Activity in MES Test ED50 ± S.E. ([3]; pretreatment time 60 min) [mg/kg] | Anticonvulsant Activity in MES Test ED50 ± S.E. ([3]; pretreatment time 120 min) [mg/kg] | Neurotoxicity in Chimney or Rotarod (†) Tests in Mice ([4]; pretreatment time 15 min) | Neurotoxicity in Chimney or Rotarod (†) Tests in Mice ([4]; pretreatment time 30 min) | Neurotoxicity in Chimney or Rotarod (†) Tests in Mice ([4]; pretreatment time 60 min) | Neurotoxicity in Chimney or Rotarod (†) Tests in Mice ([4]; pretreatment time 120 min) | IC50 [5] [µM] | Neurotoxicity in Chimney or Rotarod (†) Tests in Mice ([6]; pretreatment time 15 min) [mg/kg] | Neurotoxicity in Chimney or Rotarod (†) Tests in Mice ([6]; pretreatment time 30 min) [mg/kg] | Neurotoxicity in Chimney or Rotarod (†) Tests in Mice ([6]; pretreatment time 60 min) [mg/kg] | Neurotoxicity in Chimney or Rotarod (†) Tests in Mice ([6]; pretreatment time 120 min) [mg/kg] |
| --- | --- | --- | --- | --- | --- | --- | --- | --- | --- | --- | --- | --- | --- | --- | --- | --- | --- | --- |
| CCCC(CCC)C(=O)O [Valproic acid, reference compound] | 15.4 ± 4.71 | – | – | – | – | – | – | – | – | – | – | – | – | – | – | – | – | – |
| Cc1ccc(-n2c(-c3cccc(Cl)c3)n[nH]c2=S)cc1 [TP-10, 5-(3-Chlorophenyl)-4-(4-methylphenyl)-2,4-dihydro-3H-1,2,4-triazole-3-thione] | 40.2 ± 5.1 | 62.6 ± 13.2 | 61.1 ± 9.7 | 169.7 ± 18.5 | 167.6 ± 17.4 | 57.0 ± 9.4 | 74.5 ± 8.1 | 187.1 ± 18.8 | 281.4 ± 13.6 | 338.1 ± 12.0 | 338.1 ± 14.7 | 333.4 ± 18.6 | 395.1 ± 25.2 | – | – | – | – | – |
| CCCCCCn1c(Cc2cccc(Cl)c2)n[nH]c1=S [TP-427, 5-(3-Chlorobenzyl)-4-hexyl-2,4-dihydro-3H-1,2,4-triazole-3-thione] | 477 ± 39.6 | 40.9 ± 6.4 | 46.6 ± 8.2 | 51.6 ± 6.9 | 64.9 ± 5.6 | 72.1 ± 7.0 | 74.5 ± 8.1 | 83.6 ± 3.8 | 97.9 ± 10.9 | >1000 | >1000 | 540.7 ± 20.9 | 548.5 ± 21.4 | 6.17 ± 1.43 | – | – | – | – |
| CC(C)Cn1c(Cc2cccc(Cl)c2)n[nH]c1=S [TPR-22, 5-(3-Chlorobenzyl)-4-isobutyl-2,4-dihydro-3H-1,2,4-triazole-3-thione] | 34.4 ± 8.3 | – | – | – | – | 130.4 ± 17.6 | 130.4 ± 17.6 | 159.9 ± 21.9 | 195.7 ± 21.5 | – | – | – | – | 18.9 ± 1.2 | 306 ± 19.8 | 314 ± 22 | 326 ± 23.1 | 330 ± 24.2 |
